IC50 data for 16 molecules are collected here from patent publication US11919908B2, “Substituted pyrrolo[2,3-d]pyrimidine compounds as JAK2 V617F inhibitors” (Incyte Corporation, priority 2020, dated 2024).

A value given as a limit tells only on which side of the number the result lay.

The target in assay [1] is T1, pseudo-kinase domain (JH2) of human V617F mutant JAK2 (Homo sapiens, UniProt O60674, F794H/V617F/W659A/W777A).
T1 construct: pseudo-kinase domain (JH2, amino-acids 536-812 with 3 surface mutations W659A, W777A, F794H); His (C); purchased BPS Bioscience 79498; host or cells: baculovirus expression system
Nature of the assay: JAK2 LanthaScreen JH2-V617F Binding Assay. The following applies: 50 nM Fluorescent JAK2-JH2 Tracer, 1 hour at 25° C. As for the experimental part: (§1) Example C. JAK2 LanthaScreen JH2-V617F Binding Assay JAK2 JH2-V617F binding assay utilizes pseudo-kinase domain (JH2, amino-acids 536-812 with 3 surface mutations […]) of human V617F mutant JAK2 expressed as C-terminal His-Avi-tagged, biotinylated protein in a baculovirus expression system (BPS Bioscience, Catalog #79498). The assay was conducted in black 384-well polystyrene plates in a final reaction volume of 20 μL. JAK2 JH2-V617F (0.26 nM) was incubated with compounds (100 nL serially diluted in DMSO) in the presence of 50 nM Fluorescent JAK2-JH2 Tracer (MedChem Express Catalog #HY-102055) and 0.25 nM Streptavidin-Tb cryptate (Cisbio Part #610SATLB) in assay buffer (50 mM Tris, pH=7.5, 10 mM MgCl2, 0.01% Brij-35, 0.1% BSA, 1 mM EGTA, 5% Glycerol and 5 mM DTT). Non-specific binding was accessed in the presence of 2 mM ATP. After incubation for 1 hour at 25° C., LanthaScreen signals were read on a PHERAstar FS plate reader (BMG LABTECH). Data was analyzed with IDBS XLfit and GraphPad Prism 5.0 software using a four parameter dose response curve to determine IC50 for each compound.

Assay [2] has as its target T2, catalytic domain (JH1) of human JAK2 (Homo sapiens, UniProt O60674).
T2 construct: catalytic domain (JH1, amino acids 826-1132) of human JAK2; FLAG (N); purchased Carna Biosciences 08-445-20N; host or cells: baculovirus expression system
Nature of the assay: JAK2 LanthaScreen JH1 Binding Assay. The following applies: 50 nM Fluorescent JAK2-JH1 Tracer, 2 hours at 25° C. As for the experimental part: Example A. JAK2 LanthaScreen […] Binding Assay JAK2 JH1 binding assay utilizes catalytic domain (JH1, amino acids 826-1132) of human JAK2 expressed as N-terminal FLAG-tagged, biotinylated protein in a baculovirus expression system (Carna Biosciences, Product #08-445-20N). The assay was conducted in black 384-well polystyrene plates in a final reaction volume of 20 μL. JAK2 JH1 (1.5 nM) was incubated with compounds (100 nL serially diluted in DMSO) in the presence of 50 nM Fluorescent JAK2-JH1 Tracer and 0.5 nM Streptavidin-Tb cryptate (Cisbio Part #610SATLB) in assay buffer (50 mM Tris, pH=7.5, 10 mM MgCl2, 0.01% Brij-35, 0.1% BSA, 1 mM EGTA, 5% Glycerol and 5 mM DTT). Non-specific binding was accessed in the presence of 2 mM ATP. After incubation for 2 hours at 25° C., LanthaScreen signals were read on a PHERAstar FS plate reader (BMG LABTECH). Data was analyzed with IDBS XLfit and GraphPad Prism 5.0 software using a four parameter dose response curve to determine IC50 for each compound.

In assay [3] the target is T3, pseudo-kinase domain (JH2) of human Wild Type JAK2 (Homo sapiens, UniProt O60674, F794H/W659A/W777A).
T3 construct: pseudo-kinase domain (JH2, amino-acids 536-812 with 3 surface mutations W659A, W777A, F794H); His (C); purchased BPS Bioscience 79463; host or cells: baculovirus expression system
Nature of the assay: JAK2 LanthaScreen JH2-WT Binding Assay. To be noted: 50 nM Fluorescent JAK2-JH2 Tracer, 1 hour at 25° C. On the procedure: as §1, with “Example B.” for “Example C.”, “LanthaScreen JH2-WT” for “LanthaScreen JH2-V617F”, “JAK2 JH2-WT” for “JAK2 JH2-V617F”, “human Wild Type” for “human V617F mutant”, “Catalog #79463).” for “Catalog #79498).”, “JAK2 JH2-WT (0.145” for “JAK2 JH2-V617F (0.26”

T3 sequence (O60674 536-812 W659A/W777A/F794H): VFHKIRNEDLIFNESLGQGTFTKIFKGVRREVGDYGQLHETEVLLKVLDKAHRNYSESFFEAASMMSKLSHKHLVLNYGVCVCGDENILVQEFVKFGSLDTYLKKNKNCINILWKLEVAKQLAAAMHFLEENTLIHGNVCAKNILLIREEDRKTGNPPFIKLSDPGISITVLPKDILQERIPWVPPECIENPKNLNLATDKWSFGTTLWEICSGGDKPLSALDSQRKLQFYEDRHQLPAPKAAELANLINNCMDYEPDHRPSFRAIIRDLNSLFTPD
T1 sequence (O60674 536-812 V617F/W659A/W777A/F794H): as the sequence (O60674 536-812 W659A/W777A/F794H) above, with V82F counted along it
T2 sequence (O60674 826-1132): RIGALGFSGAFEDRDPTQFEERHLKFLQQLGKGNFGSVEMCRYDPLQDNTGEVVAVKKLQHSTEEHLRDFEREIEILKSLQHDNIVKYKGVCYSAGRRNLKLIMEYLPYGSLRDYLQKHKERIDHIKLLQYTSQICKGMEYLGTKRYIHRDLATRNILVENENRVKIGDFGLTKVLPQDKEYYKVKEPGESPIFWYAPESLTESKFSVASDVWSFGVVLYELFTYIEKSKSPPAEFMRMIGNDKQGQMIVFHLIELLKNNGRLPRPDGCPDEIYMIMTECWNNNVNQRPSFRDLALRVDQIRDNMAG

In the case of `CN(C)S(=O)(=O)c1ccc(-c2[nH]c3nc(N)[nH]c(=O)c3c2-c2cccc(C#N)c2)cc1` [Example 17, 4-(2-Amino-5-(3-cyanophenyl)-4-oxo-4,7-dihydro-3H-pyrrolo [2,3-d]pyrimidin-6-yl)-N,N-dimethyl-benzene sulfonamide], the IC50 in assay [1] is 500 to 1000 nM; in assay [2] it was 100 to 500 nM; in assay [3], 500 to 1000 nM.

Consider `CN(C)S(=O)(=O)c1ccc(-c2[nH]c3nc(N)[nH]c(=O)c3c2-c2ccccc2C#N)cc1` [Example 18, 4-(2-Amino-5-(2-cyano-phenyl)-4-oxo-4,7-dihydro-3H-pyrrolo[2,3-d]pyrimidin-6-yl)-N,N-dimethylbenzene sulfonamide], for which the IC50 in assay [1], in assay [2] and in assay [3] was more than 2500 nM in each case.

Consider `CN(C)S(=O)(=O)c1ccc(-c2[nH]c3nc(N)[nH]c(=O)c3c2-c2ccccc2OC(F)F)cc1` [Example 19, 4-(2-Amino-5-(2-(difluoromethoxy)phenyl)-4-oxo-4,7-dihydro-3H-pyrrolo[2,3-d]pyrimidin-6-yl)-N,N-dimethylbenzene sulfonamide], for which the concentration for half-maximal inhibition (IC50) in assay [1] is 1000 to 2500 nM; in assay [2], more than 2500 nM; in assay [3], more than 2500 nM.

Regarding `CN(C)S(=O)(=O)c1ccc(-c2[nH]c3nc(N)[nH]c(=O)c3c2-c2cccc3cn[nH]c23)cc1` [Example 20, 4-(2-Amino-5-(1H-indazol-7-yl)-4-oxo-4,7-dihydro-3H-pyrrolo[2,3-d]pyrimidin-6-yl)-N,N-dimethylbenzene sulfonamide], the IC50 in assay [1], in assay [2] and in assay [3] was more than 2500 nM in each case.

On to `CN(C)S(=O)(=O)c1ccc(-c2[nH]c3nc(N)[nH]c(=O)c3c2-c2ccc3c(c2)CCNC3=O)cc1` [Example 21, 4-(2-Amino-4-oxo-5-(1-oxo-1,2,3,4-tetrahydro-isoquinolin-6-yl)-4,7-dihydro-3H-pyrrolo[2,3-d]pyrimidin-6-yl)-N,N-dimethylbenzene sulfonamide], for which the values for the IC50 in assay [1], in assay [2] and in assay [3] were 100 to 500 nM, 1000 to 2500 nM and 100 to 500 nM, respectively.

Regarding `CN1CCOc2cc(-c3c(-c4ccc(S(=O)(=O)N(C)C)cc4)[nH]c4nc(N)[nH]c(=O)c34)ccc21` [Example 22, 4-(2-Amino-5-(4-methyl-3,4-dihydro-2H-benzo[b] [1,4]oxazin-7-yl)-4-oxo-4,7-dihydro-3H-pyrrolo [2,3-d]pyrimidin-6-yl)-N,N-dimethylbenzene sulfonamide], the IC50 in assay [1] was 500 to 1000 nM; in assay [2], 1000 to 2500 nM; in assay [3] it was 500 to 1000 nM.

With `COc1cc(C(N)=O)ccc1-c1c(-c2ccc(S(=O)(=O)N(C)C)cc2)[nH]c2nc(N)[nH]c(=O)c12` [Example 23, 4-(2-Amino-6-(4-(N,N-dimethylsulfamoyl)phenyl)-4-oxo-4,7-dihydro-3H-pyrrolo[2,3-d]pyrimidin-5-yl)-3-methoxy-benzamide], the IC50 in assay [1] is 500 to 1000 nM; in assay [2], more than 2500 nM; in assay [3], 500 to 1000 nM.

Regarding `COc1ccc(C(F)(F)F)cc1-c1c(-c2ccc(S(=O)(=O)N(C)C)cc2)[nH]c2nc(N)[nH]c(=O)c12` [Example 24, 4-(2-Amino-5-(2-methoxy-5-(trifluoromethyl)phenyl)-4-oxo-4,7-dihydro-3H-pyrrolo[2,3-d]pyrimidin-6-yl)-N,N-dimethylbenzene sulfonamide], the results for the IC50 in assay [1], in assay [2] and in assay [3] were 1000 to 2500 nM, more than 2500 nM and 1000 to 2500 nM, respectively.

For the molecule `COc1ccc(OC)c(-c2c(-c3ccc(S(=O)(=O)N(C)C)cc3)[nH]c3nc(N)[nH]c(=O)c23)c1` [Example 25, 4-(2-Amino-5-(2,5-dimethoxyphenyl)-4-oxo-4,7-dihydro-3H-pyrrolo[2,3-d]pyrimidin-6-yl)-N,N-dimethylbenzene sulfonamide], the IC50 in assay [1] was 500 to 1000 nM; in assay [2] it was more than 2500 nM; in assay [3], 500 to 1000 nM.

In the case of `COc1ccc(Cl)cc1-c1c(-c2ccc(S(=O)(=O)N(C)C)cc2)[nH]c2nc(N)[nH]c(=O)c12` [Example 27, 4-(2-Amino-5-(5-chloro-2-methoxyphenyl)-4-oxo-4,7-dihydro-3H-pyrrolo[2,3-d]pyrimidin-6-yl)-N,N-dimethylbenzene sulfonamide], the IC50 in assay [1] is more than 2500 nM; in assay [2], more than 2500 nM; in assay [3], 1000 to 2500 nM.

With `COc1ncccc1-c1c(-c2ccc(S(=O)(=O)N(C)C)cc2)[nH]c2nc(N)[nH]c(=O)c12` [Example 28, 4-(2-Amino-5-(2-methoxy-pyridin-3-yl)-4-oxo-4,7-dihydro-3H-pyrrolo[2,3-d]pyrimidin-6-yl)-N,N-dimethylbenzene sulfonamide], the figures for the IC50 in assay [1], in assay [2] and in assay [3] were 1000 to 2500 nM, more than 2500 nM and 1000 to 2500 nM, respectively.

For the molecule `CN(C)S(=O)(=O)c1ccc(-c2[nH]c3nc(N)[nH]c(=O)c3c2-c2cnn(Cc3cccnc3)c2)cc1` [Example 29, 4-(2-Amino-4-oxo-5-(1-(pyridin-3-ylmethyl)-1H-pyrazol-4-yl)-4,7-dihydro-3H-pyrrolo[2,3-d]pyrimidin-6-yl)-N,N-dimethylbenzene sulfonamide], the half-inhibitory concentration (IC50) in assay [1], in assay [2] and in assay [3] was more than 2500 nM each time.

For `CN(C)S(=O)(=O)c1ccc(-c2[nH]c3nc(N)[nH]c(=O)c3c2-c2cnn(Cc3ccccc3)c2)cc1` [Example 30, 4-(2-Amino-5-(1-benzyl-1H-pyrazol-4-yl)-4-oxo-4,7-dihydro-3H-pyrrolo[2,3-d]pyrimidin-6-yl)-N,N-dimethylbenzene sulfonamide], the IC50 in assay [1], in assay [2] and in assay [3] was more than 2500 nM throughout.

On to `CN(C)S(=O)(=O)c1ccc(-c2[nH]c3nc(N)[nH]c(=O)c3c2-c2cnn(Cc3ccc(C#N)cc3)c2)cc1` [Example 31, 4-(2-Amino-5-(1-(4-cyanobenzyl)-1H-pyrazol-4-yl)-4-oxo-4,7-dihydro-3H-pyrrolo[2,3-d]pyrimidin-6-yl)-N,N-dimethylbenzene sulfonamide], for which the IC50 in assay [1], in assay [2] and in assay [3] was 1000 to 2500 nM in each case.

In the case of `CN(C)S(=O)(=O)c1ccc(-c2[nH]c3nc(N)[nH]c(=O)c3c2-c2cnn(Cc3ccncc3)c2)cc1` [Example 32, 4-(2-Amino-4-oxo-5-(1-(pyridin-4-ylmethyl)-1H-pyrazol-4-yl)-4,7-dihydro-3H-pyrrolo[2,3-d]pyrimidin-6-yl)-N,N-dimethylbenzene sulfonamide], the IC50 in assay [1] is 1000 to 2500 nM; in assay [2], more than 2500 nM; in assay [3] it was 1000 to 2500 nM.

In the case of `COc1cc2ccccc2cc1-c1c(-c2ccc(S(=O)(=O)N(C)C)cc2)[nH]c2nc(N)[nH]c(=O)c12` [Example 33, 4-(2-Amino-5-(3-methoxynaphthalen-2-yl)-4-oxo-4,7-dihydro-3H-pyrrolo[2,3-d]pyrimidin-6-yl)-N,N-dimethylbenzene sulfonamide], the results for the half-maximal inhibitory concentration (IC50) in assay [1], in assay [2] and in assay [3] were 500 to 1000 nM, more than 2500 nM and 500 to 1000 nM, respectively.
